Measurements from US9216173B2, “2-Pyridyl carboxamide-containing spleen tyrosine kinase (SYK) inhibitors” (Merck Sharp & Dohme Corp., priority 2011, dated 2015).
Read-outs that look alike come from different tables or passages of the source.

Target: T1, recombinant human GST-SYK (Homo sapiens, UniProt P43405)
T1 construct: purchased Carna Biosciences 08-176
Test: Homogeneous Time-Resolved Fluorescence (HTRF) assay for the recombinant human Syk enzyme
Type: biochemical
Details: GST-hSYK 5 pM, ATP 25 μM, 10-dose titration 10 μM to 0.508 nM
Procedure: Homogeneous Time-Resolved Fluorescence (HTRF) Assay for the Recombinant Human Syk Enzyme
A recombinant GST-hSYK fusion protein was used to measure potency of compounds to inhibit human Syk activity. […] Final volume of the reaction was 10 μL. Phosphorylation of the peptide was allowed to proceed for 45 minutes at room temperature. To quench the reaction and detect the phosphorylated product, 2 nM of a Europium-anti-phosphotyrosine antibody (Perkin Elmer #AD0161) and 70 nM SA-APC (Perkin-Elmer #CR130-100) were added together in 15 mM Tris pH 7.5, 40 mM EDTA, 0.01% tween 20. Final volume of the quenching solution was 10 μL. The resulting HTRF signal was measured after 30 minutes on an EnVision (Perkin-Elmer) reader using a time-resolved fluorescence protocol.

[1] = read-out: rhSYK Activity (IC50 rating)

SMILES | IC50 [1] [nM] | IC50 (read-out: IC50) [nM]
COC[C@H](N)CNc1cnc(C(N)=O)c(Nc2cccc(-n3nccn3)n2)c1 [Example 1.82, 5-{[(2R)-2-amino-3-methoxypropyl]amino}-3-{[6-(2H-1,2,3-triazol-2-yl)pyridin-2-yl]amino}pyridine-2-carboxamide] | < 10 | –
CCC(CN)Nc1cnc(C(N)=O)c(Nc2cccc(-n3nccn3)n2)c1 (stereo not shown) [Example 1.85, 5-{[1-(aminomethyl)propyl]amino}-3-{[6-(2H-1,2,3-triazol-2-yl)pyridin-2-yl]amino}pyridine-2-carboxanmle] | < 10 | –
Cn1ccc(Nc2cc(N[C@H]3[C@@H](N)CCCC3(F)F)cnc2C(N)=O)n1 [Example 1.86, 5-{[(1S,6S)-6-amino-2,2-difluorocyclohexyl]amino}-3-[(1-methyl-1H-pyrazol-3-yl)amino]pyridine-2-carboxamide] | 10 to 100 | 63
NC(=O)c1ncc(N[C@H]2[C@@H](N)CCCC2(F)F)cc1Nc1ccn(-c2ccc(F)cc2)n1 [Example 1.87, 5-{[(1S,6S)-6-amino-2,2-difluorocyclohexyl]amino}-3-{[1-(4-fluorophenyl)-1H-pyrazol-3-yl]amino}pyridine-2-carboxamide] | < 10 | –
CCc1cccc(Nc2cc(N[C@H]3[C@@H](N)CCCC3(F)F)cnc2C(N)=O)n1 [Example 1.88, 5-{[(1S,6S)-6-amino-2,2-difluorocyclohexyl]amino}-3-[(6-ethylpyridin-2-yl)amino]pyridine-2-carboxamide] | < 10 | –
C[C@H](N)CNc1cnc(C(N)=O)c(Nc2ccn(C)n2)c1 [Example 1.92, 5-{[(2S)-2-aminopropyl]amino}-3-[(1-methyl-1H-pyrazol-3-yl)amino]pyridine-2-carboxamide] | 10 to 100 | –
C[C@H](N)CNc1cnc(C(N)=O)c(Nc2ccn(-c3ccc(F)cc3)n2)c1 [Example 1.93, 5-{[(2S)-2-aminopropyl]amino}-3-{[1-(4-fluorophenyl)-1H-pyrazol-3-yl]amino}pyridine-2-carboxamide] | < 10 | –
CCc1cccc(Nc2cc(NC[C@H](C)N)cnc2C(N)=O)n1 [Example 1.94, 5-{[(2S)-2-aminopropyl]amino}-3-[(6-ethylpyridin-2-yl)amino]pyridine-2-carboxamide] | < 10 | –
CCC(CN)Nc1cnc(C(N)=O)c(Nc2ccn(C)n2)c1 (stereo not shown) [Example 1.95, 5-{[1-(aminomethyl)propyl]amino}-3-[(1-methyl-1H-pyrazol-3-yl)amino]pyridine-2-carboxamide] | 100 to 1000 | 120
CCC(CN)Nc1cnc(C(N)=O)c(Nc2ccn(-c3ccc(F)cc3)n2)c1 (stereo not shown) [Example 1.96, 5-{[1-(aminomethyl)propyl]amino}-3-{[1-(4-fluorophenyl)-1H-pyrazol-3-yl]amino}pyridine-2-carboxamide] | < 10 | –
CCc1cccc(Nc2cc(NC(CC)CN)cnc2C(N)=O)n1 (stereo not shown) [Example 1.97, 5-{[1-(aminomethyl)propyl]amino}-3-[(6-ethylpyridin-2-yl)amino]pyridine-2-carboxamide] | < 10 | –
COC[C@H](N)CNc1cnc(C(N)=O)c(Nc2ccn(C)n2)c1 [Example 1.98, 5-{[(2R)-2-amino-3-methoxypropyl]amino}-3-[(1-methyl-1H-pyrazol-3-yl)amino]pyridine-2-carboxamide] | 100 to 1000 | –
COC[C@H](N)CNc1cnc(C(N)=O)c(Nc2ccn(-c3ccc(F)cc3)n2)c1 [Example 1.99, 5-{[(2R)-2-amino-3-methoxypropyl]amino}-3-{[1-(4-fluorophenyl)-1H-pyrazol-3-yl]amino}pyridine-2-carboxamide] | < 10 | –
CCc1cccc(Nc2cc(NC[C@@H](N)COC)cnc2C(N)=O)n1 [Example 1.100, 5-{[(2R)-2-amino-3-methoxypropyl]amino}-3-[(6-ethylpyridin-2-yl)amino]pyridine-2-carboxamide] | < 10 | –
NC(=O)c1ncc(N[C@@H]2CCCC[C@@H]2N)cc1Nc1cccc(-c2cn(Cc3ccccc3)nn2)n1 [Example 1.101, 5-{[(1R,2S)-2-aminocyclohexyl]amino}-3-{[6-(1-benzyl-1H-1,2,3-triazol-4-yl)pyridin-2-yl]amino}pyridine-2-carboxamide] | < 10 | –
NC(=O)c1ncc(NCC2(N)CC2)cc1Nc1cccc(C(F)(F)F)n1 [Example 1.103, 5-{[(1-aminocyclopropyl)methyl]amino}-3-{[6-(trifluoromethyl)pyridin-2-yl]amino}pyridine-2-carboxamide] | < 10 | –
C[C@H](N)CNc1cnc(C(N)=O)c(Nc2cccc(C(F)(F)F)n2)c1 [Example 1.104, 5-{[(2S)-2-aminopropyl]amino}-3-{[6-(trifluoromethyl)pyridin-2-yl]amino}pyridine-2-carboxamide] | < 10 | –
COC[C@H](N)CNc1cnc(C(N)=O)c(Nc2cccc(C(F)(F)F)n2)c1 [Example 1.105, 5-{[(2R)-2-amino-3-methoxypropyl]amino}-3-{[6-(trifluoromethyl)pyridin-2-yl]amino}pyridine-2-carboxamide] | < 10 | –
NC(=O)c1ncc(N[C@H]2[C@@H](N)CCCC2(F)F)cc1Nc1cccc(C(F)(F)F)n1 [Example 1.106, 5-{[(1S,6S)-6-amino-2,2-difluorocyclohexyl]amino}-3-{[6-(trifluoromethyl)pyridin-2-yl]amino}pyridine-2-carboxamide] | < 10 | –

Further lines, results first:

IC50 [1] [nM] | IC50 (read-out: IC50) [nM] | SMILES
< 10 | – | Cc1nc(Nc2cc(N[C@@H]3CCCC[C@@H]3N)cnc2C(N)=O)ccc1-n1ccnn1 [Example 1.74, 5-{[(1R,2S)-2-aminocyclohexyl]amino}-3-{[6-methyl-5-(1H-1,2,3-triazol-1-yl)pyridin-2-yl]amino}pyridine-2-carboxamide]
< 10 | – | Cc1cc(-n2ccnn2)cc(Nc2cc(N[C@@H]3CCCC[C@@H]3N)cnc2C(N)=O)n1 [Example 1.75, 5-{[(1R,2S)-2-aminocyclohexyl]amino}-3-{[6-methyl-4-(1H-1,2,3-triazol-1-yl)pyridin-2-yl]amino}pyridine-2-carboxamide]
< 10 | – | Cc1cc(-n2nccn2)cc(Nc2cc(N[C@@H]3CCCC[C@@H]3N)cnc2C(N)=O)n1 [Example 1.76, 5-{[(1R,2S)-2-aminocyclohexyl]amino}-3-{[6-methyl-4-(2H-1,2,3-triazol-2-yl)pyridin-2-yl]amino}pyridine-2-carboxamide]
< 10 | – | Cc1cc(N2CCOCC2)cc(Nc2cc(N[C@@H]3CCCC[C@@H]3N)cnc2C(N)=O)n1 [Example 1.77, 5-{[(1R,2S)-2-aminocyclohexyl]amino}-3-[(6-methyl-4-morpholin-4-ylpyridin-2-yl)amino]pyridine-2-carboxamide]
< 10 | – | Cc1ccc(-n2nc(Nc3cc(N[C@@H]4CCCC[C@@H]4N)cnc3C(N)=O)cc2C)cc1 [Example 1.79, 5-{[(1R,2S)-2-aminocyclohexyl]amino}-3-{[5-methyl-1-(4-methylphenyl)-1H-pyrazol-3-yl]amino}pyridine-2-carboxamide]
< 10 | – | Cc1cccc(-n2ccc(Nc3cc(N[C@@H]4CCCC[C@@H]4N)cnc3C(N)=O)n2)c1 [Example 1.80, 5-{[(1R,2S)-2-aminocyclohexyl]amino}-3-{[1-(3-methylphenyl)-1H-pyrazol-3-yl]amino}pyridine-2-carboxamide]
< 10 | – | NC(=O)c1ncc(N[C@@H]2CCCC[C@@H]2N)cc1Nc1ccn(-c2ccccn2)n1 [Example 1.81, 5-{[(1R,2S)-2-aminocyclohexyl]amino}-3-[(1-pyridin-2-yl-1H-pyrazol-3-yl)amino]pyridine-2-carboxamide]
< 10 | – | NC(=O)c1ncc(N[C@H]2[C@@H](N)CCCC2(F)F)cc1Nc1cccc(-n2nccn2)n1 [Example 1.83, 5-{[(1S,6S)-6-amino-2,2-difluorocyclohexyl]amino}-3-{[6-(2H-1,2,3-triazol-2-yl)pyridin-2-yl]amino}pyridine-2-carboxamide]
< 10 | – | Cc1cc(Nc2cc(N[C@@H]3CCCC[C@@H]3N)cnc2C(N)=O)nc(-n2nccn2)c1 [Example 1.102, 5-{[(1R,2S)-2-aminocyclohexyl]amino}-3-{[4-methyl-6-(2H-1,2,3-triazol-2-yl)pyridin-2-yl]amino}pyridine-2-carboxamide]
< 10 | – | Cc1cc2ccsc2c(Nc2cc(N[C@@H]3CCCC[C@@H]3N)cnc2C(N)=O)n1 [Example 1.107, 5-{[(1R,2S)-2-aminocyclohexyl]amino}-3-[(5-methylthieno[2,3-c]pyridin-7-yl)amino]pyridine-2-carboxamide]
< 10 | – | Cc1cc(Nc2cc(N[C@@H]3CCCC[C@@H]3N)cnc2C(N)=O)nc(-c2cnn(C)c2)c1 [Example 1.110, 5-{[(1R,2S)-2-aminocyclohexyl]amino}-3-{[4-methyl-6-(1-methyl-1H-pyrazol-4-yl)pyridin-2-yl]amino}pyridine-2-carboxamide]
< 10 | – | COc1ccc(Nc2cc(N[C@@H]3CCCC[C@@H]3N)cnc2C(N)=O)nc1C [Example 1.111, 5-{[(1R,2S)-2-aminocyclohexyl]amino}-3-[(5-methoxy-6-methylpyridin-2-yl)amino]pyridine-2-carboxamide]
< 10 | – | Cc1cc(Nc2cc(N[C@@H]3CCCC[C@@H]3N)cnc2C(N)=O)nc(-c2ccnn2C)c1 [Example 1.112, 5-{[(1R,2S)-2-aminocyclohexyl]amino}-3-{[4-methyl-6-(1-methyl-1H-pyrazol-5-yl)pyridin-2-yl]amino}pyridine-2-carboxamide]
